In brackets after ≈: the same amount, converted by molar mass.
Tests used:
Eco-tolC = test: Bacterial susceptibility testing in liquid media, Eco-tolC MIC; settings: for MIC: Escherichia coli, read-out: Eco-tolC MIC
Text: (§1) Compounds may be tested for antimicrobial activity by susceptibility testing in liquid media. Compounds may be dissolved in dimethylsulfoxide and tested in 10 doubling dilutions in the susceptibility assays. The organisms used in the assay may be grown overnight on suitable agar media and then suspended in a liquid medium appropriate for the growth of the organism. The suspension can be a 0.5 McFarland and a further 1 in 10 dilution can be made into the same liquid medium to prepare the final organism suspension in 100 μL. Plates can be incubated under appropriate conditions at 37° C. for 24 hrs prior to reading.

Spn548 = test: Bacterial susceptibility testing in liquid media, Spn548 MIC; settings: Streptococcus pneumoniae, 24 h, read-out: Spn548 Mean MIC
Text: as §1

M. tuberculosis = test: Mycobacteria susceptibility testing, Microplate Alamar Blue Assay, Mtu MIC; assay type: cell-based, Mycobacterium tuberculosis (Mtu); settings: for MIC: Mycobacterium tuberculosis
Msm. GyrB = biological target: T1, Msm. GyrB (Mycolicibacterium smegmatis, UniProt A0QNE0); test: Msmegmatis GyrB enzyme assay (ATPase, malachite green phosphate detection); assay type: biochemical; settings: read-out: Msm_GyrB IC50
T1 construct: 15 nM Msm; GyrB, 650 μM ATP, and compound in dimethyl sulfoxide
Protocol: Compounds may be tested for inhibition of GyrB ATPase activity using an ammonium molybdate/malachite green-based phosphate detection assay (Lanzetta, P. A., L. J. Alvarez, P. S. Reinach, and O. A. Candia, 1979, 100: 95-97; Innova Biosciences malachite green detection kit). Assays can be performed in multi-well plates in 50 μl reactions containing: 50 mM HEPES buffer pH 7.7, 250 mM potassium glutamate, 200 mM potassium chloride, 2 mM magnesium chloride, 2% glycerol, 1 mM 1,4-Dithio-DL-threitol, 0.005% Brij-35, 15 nM Msm. GyrB, 650 μM ATP, and compound in dimethyl sulfoxide. Reactions can be quenched with 12.5 μl of ammonium molybdate/malachite green detection reagent (Pi color lock gold & accelerator mix; Innova Biosciences), followed by the addition of 5 μl of stabilizer (Innova Biosciences) after 5 min of incubation.

T1 sequence (A0QNE0 whole entry): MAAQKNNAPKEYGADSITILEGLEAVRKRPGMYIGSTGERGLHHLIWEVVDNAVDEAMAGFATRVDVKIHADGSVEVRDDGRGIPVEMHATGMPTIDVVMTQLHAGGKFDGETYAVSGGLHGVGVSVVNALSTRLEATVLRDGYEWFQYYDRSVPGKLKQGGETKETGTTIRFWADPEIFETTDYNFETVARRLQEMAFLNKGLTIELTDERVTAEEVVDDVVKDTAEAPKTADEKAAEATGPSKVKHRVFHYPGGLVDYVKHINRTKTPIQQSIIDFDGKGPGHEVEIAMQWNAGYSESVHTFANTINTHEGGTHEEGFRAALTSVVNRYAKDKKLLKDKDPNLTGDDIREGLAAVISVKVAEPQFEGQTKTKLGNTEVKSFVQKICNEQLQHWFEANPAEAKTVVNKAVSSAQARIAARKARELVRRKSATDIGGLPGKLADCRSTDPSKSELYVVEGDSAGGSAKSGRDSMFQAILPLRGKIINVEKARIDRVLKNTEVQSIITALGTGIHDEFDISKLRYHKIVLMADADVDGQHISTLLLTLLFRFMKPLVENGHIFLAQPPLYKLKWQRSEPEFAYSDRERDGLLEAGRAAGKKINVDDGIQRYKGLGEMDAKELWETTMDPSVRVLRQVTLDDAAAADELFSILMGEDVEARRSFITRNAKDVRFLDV

Structure (SMILES) | MIC (Eco-tolC) | MIC (Spn548) | MIC (M. tuberculosis) | Eco-tolC MIC (Eco-tolC) | Mtu MIC (M. tuberculosis) | IC50 (Msm. GyrB)
CCNC(=O)Nc1nc2cc(-c3cncnc3)c(OCC3CCOC3)nc2s1 (single isomer, unassigned; isomer 1) [Example 68, 1-ethyl-3-[6-pyrimidin-5-yl-5-(tetrahydrofuran-3-ylmethoxy)[1,3]thiazolo[5,4-b]pyridin-2-yl]urea (Chiral isomer 1)] | 0.5 µg/mL (≈ 1.25 µM) | 0.125 µg/mL (≈ 0.312 µM) | 0.0884 µg/mL (≈ 0.221 µM) |  |  | 
CCNC(=O)Nc1nc2cc(-c3cncnc3)c(OCC3CCOC3)nc2s1 (single isomer, unassigned; isomer 2) [Example 69, 1-ethyl-3-[6-pyrimidin-5-yl-5-(tetrahydrofuran-3-ylmethoxy)[1,3]thiazolo[5,4-b]pyridin-2-yl]urea (Chiral isomer 2)] |  |  |  | 0.25 µg/mL | 0.08839 µg/mL | 
C=CCNC(=O)Nc1nc2cc(Cl)cnc2s1 [Example 1, 1-Allyl-3-(6-chloro-thiazolo [5,4-b]pyridin-2-yl)-urea] | 16 µg/mL (≈ 59.5 µM) | 8 µg/mL (≈ 29.8 µM) | 16 µg/mL (≈ 59.5 µM) |  |  | 0.191 µM
C=CCNC(=O)Nc1nc2cc(Br)c(C)nc2s1 [Example 2, 1-Allyl-3-(6-bromo-5-methyl-thiazolo [5,4-b]pyridin-2-yl)-urea] | 32 µg/mL (≈ 97.8 µM) | > 32 µg/mL |  |  |  | 2.19 µM
C=CCNC(=O)Nc1nc2cc(-c3cccnc3)cnc2s1 [Example 3, 1-allyl-3-[6-(3-pyridyl)thiazolo [5,4-b]pyridin-2-yl] urea] | > 64 µg/mL | 1 µg/mL (≈ 3.21 µM) | 10.1 µg/mL (≈ 32.4 µM) |  |  | 
CCNC(=O)Nc1nc2cc(-c3cnc(OC)nc3)cnc2s1 [Example 4, 1-ethyl-3-[6-(2-methoxypyrimidin-5-yl)thiazolo [5,4-b]pyridin-2-yl] urea] | > 64 µg/mL | 0.5 µg/mL (≈ 1.51 µM) | > 8 µg/mL |  |  | 0.14 µM
CCNC(=O)Nc1nc2cc(-c3cccnc3)cnc2s1 [Example 5, 1-Ethyl-3-(6-pyridin-3-yl-thiazolo [5,4-b]pyridin-2-yl)-urea] | 8.83 µg/mL (≈ 29.5 µM) | 1.56 µg/mL (≈ 5.21 µM) |  |  |  | 
C=CCNC(=O)Nc1nc2cc(-c3cncnc3)c(C)nc2s1 [Example 6, 1-Allyl-3-(5-methyl-6-pyrimidin-5-yl-thiazolo [5,4-b]pyridin-2-yl)-urea] | 32.3 µg/mL (≈ 99 µM) | 1.01 µg/mL (≈ 3.09 µM) | 8 µg/mL (≈ 24.5 µM) |  |  | 0.151 µM
C=CCNC(=O)Nc1nc2cc(-c3cccnc3)c(OCCN3CCOCC3)nc2s1 [Example 28, 1-[5-(2-morpholin-4-ylethoxy)-6-pyridin-3-yl[1,3]thiazolo[5,4-b]pyridin-2-yl]-3-prop-2-en-1-ylurea] | > 32 µg/mL | 4 µg/mL (≈ 9.08 µM) | > 22.6 µg/mL |  |  | 
C=CCNC(=O)Nc1nc2cc(-c3cccnc3)c(OCCOC)nc2s1 [Example 29, 1-[5-(2-methoxyethoxy)-6-pyridin-3-yl[1,3]thiazolo[5,4-b]pyridin-2-yl]-3-prop-2-en-1-ylurea] | 1.22 µg/mL (≈ 3.16 µM) | 0.152 µg/mL (≈ 0.395 µM) | 4 µg/mL (≈ 10.4 µM) |  |  | 
CCNC(=O)Nc1nc2cc(-c3cncnc3)c(OCC3CCOC3)nc2s1 (centres unmarked) [Example 36, 1-ethyl-3-[6-pyrimidin-5-yl-5-(tetrahydrofuran-3-ylmethoxy)[1,3]thiazolo[5,4-b]pyridin-2-yl]urea] | 0.125 µg/mL (≈ 0.312 µM) | 0.0625 µg/mL (≈ 0.156 µM) | 0.0544 µg/mL (≈ 0.136 µM) |  |  | 
CCNC(=O)Nc1nc2cc(-c3ccc(F)nc3)c(OCC3CCOC3)nc2s1 (centres unmarked) [Example 40, 1-ethyl-3-[6-(6-fluoropyridin-3-yl)-5-(tetrahydrofuran-3-ylmethoxy)[1,3]thiazolo[5,4-b]pyridin-2-yl]urea] | 0.571 µg/mL (≈ 1.37 µM) | 0.0714 µg/mL (≈ 0.171 µM) | 0.354 µg/mL (≈ 0.847 µM) |  |  | 
CCNC(=O)Nc1nc2cc(-c3cccnc3)c(OCC3CCOC3)nc2s1 (centres unmarked) [Example 42, 1-ethyl-3-[6-pyridin-3-yl-5-(tetrahydrofuran-3-ylmethoxy)[1,3]thiazolo[5,4-b]pyridin-2-yl]urea] | 1.25 µg/mL (≈ 3.12 µM) | 0.078 µg/mL (≈ 0.195 µM) | 0.42 µg/mL (≈ 1.05 µM) |  |  | 
CCNC(=O)Nc1nc2cc(-c3cncnc3)c(OCCOC)nc2s1 [Example 44, 1-ethyl-3-[5-(2-methoxyethoxy)-6-pyrimidin-5-yl[1,3]thiazolo[5,4-b]pyridin-2-yl]urea] | 1.17 µg/mL (≈ 3.12 µM) | 0.0731 µg/mL (≈ 0.195 µM) | 0.25 µg/mL (≈ 0.668 µM) |  |  | 
CCNC(=O)Nc1nc2cc(-c3cccnc3)c(OCCOC)nc2s1 [Example 45, 1-ethyl-3-[5-(2-methoxyethoxy)-6-pyridin-3-yl[1,3]thiazolo[5,4-b]pyridin-2-yl]urea] | 4.67 µg/mL (≈ 12.5 µM) | 0.292 µg/mL (≈ 0.781 µM) | 1 µg/mL (≈ 2.68 µM) |  |  | 
CCNC(=O)Nc1nc2cc(-c3ccc(C#N)nc3)c(OCC3CCOC3)nc2s1 (centres unmarked) [Example 54, 1-[6-(6-cyanopyridin-3-yl)-5-(tetrahydrofuran-3-ylmethoxy)[1,3]thiazolo[5,4-b]pyridin-2-yl]-3-ethylurea] | 1 µg/mL (≈ 2.36 µM) | 0.0625 µg/mL (≈ 0.147 µM) | 0.177 µg/mL (≈ 0.417 µM) |  |  | 
CCNC(=O)Nc1nc2cc(-c3cncc(C#N)c3)c(OCC3CCOC3)nc2s1 (centres unmarked) [Example 57, 1-[6-(5-cyanopyridin-3-yl)-5-(tetrahydrofuran-3-ylmethoxy)[1,3]thiazolo[5,4-b]pyridin-2-yl]-3-ethylurea] | 0.0625 µg/mL (≈ 0.147 µM) | 0.0625 µg/mL (≈ 0.147 µM) | 0.25 µg/mL (≈ 0.589 µM) |  |  | 
CCNC(=O)Nc1nc2cc(-c3cnn(C)c3)c(OCC3CCOC3)nc2s1 (centres unmarked) [Example 71, 1-ethyl-3-[6-(1-methyl-1H-pyrazol-4-yl)-5-(tetrahydrofuran-3-ylmethoxy)[1,3]thiazolo[5,4-b]pyridin-2-yl]urea] | 0.5 µg/mL (≈ 1.24 µM) | 0.125 µg/mL (≈ 0.311 µM) | 0.707 µg/mL (≈ 1.76 µM) |  |  | 
CCNC(=O)Nc1nc2cc(-c3cncnc3)c(OC(C)C)nc2s1 [Example 73, 1-ethyl-3-[5-(1-methylethoxy)-6-pyrimidin-5-yl[1,3]thiazolo[5,4-b]pyridin-2-yl]urea] |  |  | 0.125 µg/mL (≈ 0.349 µM) |  |  | 0.0052 µM
CCNC(=O)Nc1nc2cc(-c3ccc(F)nc3)c(OC(C)C)nc2s1 [Example 74, 1-ethyl-3-[6-(6-fluoropyridin-3-yl)-5-(1-methylethoxy)[1,3]thiazolo[5,4-b]pyridin-2-yl]urea] |  |  | 1 µg/mL (≈ 2.66 µM) |  |  | 0.01 µM
CCNC(=O)Nc1nc2cc(-c3cnc(C#N)nc3)c(OC3CCOC3)nc2s1 (centres unmarked) [Example 75, 1-[6-(2-cyanopyrimidin-5-yl)-5-(tetrahydrofuran-3-yloxy)[1,3]thiazolo[5,4-b]pyridin-2-yl]-3-ethylurea] |  |  | < 0.06 µg/mL |  |  | < 0.00254 µM
CCNC(=O)Nc1nc2cc(-c3ccc(F)nc3)c(OC3CCOC3)nc2s1 (centres unmarked) [Example 76, 1-ethyl-3-[6-(6-fluoropyridin-3-yl)-5-(tetrahydrofuran-3-yloxy)[1,3]thiazolo[5,4-b]pyridin-2-yl]urea] |  |  | 0.5 µg/mL (≈ 1.24 µM) |  |  | 0.00354 µM
CCNC(=O)Nc1nc2cc(-c3cnc(C(F)(F)F)nc3)c(OCC3CCOC3)nc2s1 (centres unmarked) [Example 77, 1-ethyl-3-{5-(tetrahydrofuran-3-ylmethoxy)-6-[2-(trifluoromethyl)pyrimidin-5-yl][1,3]thiazolo[5,4-b]pyridin-2-yl}urea] |  |  | 2.83 µg/mL (≈ 6.04 µM) |  |  | 0.0029 µM
CCNC(=O)Nc1nc2cc(-c3cncc(-c4n[nH]c(=O)o4)c3)c(OCC3CCOC3)nc2s1 (centres unmarked) [Example 78, 1-ethyl-3-{6-[5-(5-oxo-4,5-dihydro-1,3,4-oxadiazol-2-yl)pyridin-3-yl]-5-(tetrahydrofuran-3-ylmethoxy)[1,3]thiazolo[5,4-b]pyridin-2-yl}urea] |  |  | 8 µg/mL (≈ 16.5 µM) |  |  | < 0.00254 µM
CCNC(=O)Nc1nc2cc(-c3cncc(F)c3)c(OCC3CCOC3)nc2s1 (centres unmarked) [Example 79, 1-ethyl-3-[6-(5-fluoropyridin-3-yl)-5-(tetrahydrofuran-3-ylmethoxy)[1,3]thiazolo[5,4-b]pyridin-2-yl]urea] |  |  | 0.354 µg/mL (≈ 0.847 µM) |  |  | 
